Experimental findings from ChEMBL document CHEMBL1914306, “The design, synthesis and biological evaluation of novel URB602 analogues as potential monoacylglycerol lipase inhibitors” (Bioorg Med Chem Lett, 2011) are described below.

Test [1] has as its target T1, Monoglyceride lipase (Homo sapiens) (UniProt Q99685).
T1 sequence (whole entry): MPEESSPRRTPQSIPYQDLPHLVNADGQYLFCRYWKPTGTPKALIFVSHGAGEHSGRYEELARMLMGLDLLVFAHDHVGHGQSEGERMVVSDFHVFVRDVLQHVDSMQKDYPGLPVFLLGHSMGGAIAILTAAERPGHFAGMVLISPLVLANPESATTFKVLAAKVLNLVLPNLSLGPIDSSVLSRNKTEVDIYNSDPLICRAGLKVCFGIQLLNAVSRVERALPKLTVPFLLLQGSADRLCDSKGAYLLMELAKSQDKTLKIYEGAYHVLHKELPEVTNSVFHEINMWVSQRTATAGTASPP
As to the kind of experiment: Inhibition of human recombinant MAGL assessed as remaining activity at 1 uM after 10 mins by spectrophotometry relative to control.

Test [2] concerns the target T1, Monoglyceride lipase (Homo sapiens). Briefly: Inhibition of human recombinant MAGL assessed as remaining activity at 10 uM after 10 mins by spectrophotometry relative to control.
Test [3] has the same target. As to the kind of experiment: Inhibition of human recombinant MAGL assessed as remaining activity at 100 uM after 10 mins by spectrophotometry relative to control.
Test [4] has the same target. As to the kind of experiment: Inhibition of MAGL assessed as remaining activity using 4-nitrophenylacetate as substrate at 10 uM relative to control.

In the case of `S=C(Nc1cccc(-c2ccccc2)c1)NC1CCCCC1`, the Activity in test [1] is 93%; in test [2], 76%.

Take `O=C(Nc1cccc(-c2ccccc2)c1)NC1CCCC1`: the Activity in test [1] came out at 80%; in test [2], 73%.

Turning to `S=C(Nc1cccc(-c2ccccc2)c1)OC1CCCCC1`, the Activity in test [1] came to 73%; in test [2], 83%.

`O=C(Nc1cccc(-c2ccccc2)c1)OC1CCCCCCC1`: the results for the Activity in test [1] and in test [2] were 101% and 92%, respectively.

For `CC(C)[C@@H]1CC[C@@H](C)C[C@H]1OC(=O)Nc1cccc(-c2ccccc2)c1`, the Activity in test [1] stood at 106%; in test [2], 101%.

With `O=C(Nc1cccc(-c2ccccc2)c1)NC1CCCCC1`, the Activity in test [1] was found to be 98%; in test [3], 78%; in test [2], 79%.

Regarding `O=C(Nc1cccc(-c2ccccc2)c1)OC1CCCCC1`, the Activity stood at 93% in test [1], 73% in test [3], 71% in test [2] and 84% in test [4].

`O=C(Nc1cccc(-c2ccccc2)c1)O[C@H]1C[C@H]2CC[C@@H]1C2`: the Activity in test [1] was found to be 95%; in test [2], 79%.

Take `S=C(Nc1cccc(-c2ccccc2)c1)OC1CCCCCC1`: the Activity in test [1] stood at 79%; in test [2], 83%.

Take `O=C(Nc1cccc(-c2ccc(Cl)cc2)c1)OC1CCCCC1`: the Activity amounted to 85% in test [1], 81% in test [3] and 81% in test [2].

Regarding `O=C(Nc1cccc(-c2ccccc2)c1)OC1CCCCCC1`, the Activity in test [1] was found to be 94%; in test [2], 71%.

Take `O=C(Nc1cccc(-c2ccccc2)c1)OC1CCC1`: the Activity turned out to be 97% in test [1], 85% in test [3] and 86% in test [2].

On to `O=C(Nc1cccc(-c2ccccc2)c1)NC1CCCCCC1`, for which the Activity in test [1] turned out to be 96%; in test [3], 55%; in test [2] it was 80%.

As to `O=C(Nc1cccc(-c2ccc(O)cc2)c1)OC1CCCCC1`, the Activity is 83% in test [1], 26% in test [3] and 46% in test [2].

As to `O=C(Nc1cccc(-c2ccccc2)c1)OC1CCCC1`, the Activity in test [1] worked out at 93%; in test [2] it was 71%.
